{
  "source": "patent US20220096592A1",
  "about": "“PIC1 VARIANTS WITH IMPROVED SOLUBILITY AND METHODS OF USING THE SAME” (priority 2019, published 2022)",
  "key": {"C5a generation": {"tested_on": "C5a generation", "assay": "C5a ELISA of supernatant, antibody-sensitized human platelets in normal human serum", "format": "cell-based", "experimental": "For experiments sensitizing platelets with human anti-platelet antibody, purified platelets were treated with 4% ITP sera for 15 minutes at 30° C. before adding 2% normal human complement sufficient sera and incubating for 30 minutes at 37° C. For samples containing PIC1, sera and PIC1 were pre-incubated for 5 minutes before combining with sensitized platelets. Samples were then spun and supernatant was removed for C5a analysis by ELISA. A C5a ELISA kit (R&D Systems) was used per manufacturer's instructions. The cells were washed once with GVBS^−− and once with water to lyse the platelets. The remaining cell pellet was treated with 25 mM methylamine for 1 hour at 37° C., spun, and the supernatant was analyzed for iC3b by ELISA. The ELISA for iC3b was performed as previously described, utilizing a goat anti-human C3 antibody (Complement Technology, Tyler, Tex.) for capture, a mouse anti-human iC3b antibody (Quidel, San Diego, Calif.) for probing, and a goat anti-mouse HRP (Sigma-Aldrich, St Louis, Mo.) for detection.\nPlasma recovered from these experiments was then assayed for the pro-inflammatory anaphylatoxin C5a by ELISA."}, "[1]": {"tested_on": "transfused human platelets", "assay": "human platelets transfused into Wistar rats (platelet refractoriness model)", "format": "in vivo, Wistar rat", "experimental": "Male Wistar rats approximately 16 weeks old and 250 grams in weight were purchased (Hilltop Scottdale, Pa.) with indwelling intra jugular catheters in place. Rats were sedated with ketamine and acepromazine throughout the course of the experiment with monitoring of vital signs. PIC1 infusions were performed 30 seconds prior to transfusion with PKH26 stained human platelets. Blood samples were collected into K2EDTA microtainer tubes (BD, Franklin Lakes, N.J., USA) from the animals prior to transfusion and then at 0.5, 2, 5, 20, 60 and 120 min after transfusion. Upon completion of the final blood draw, the animals were euthanized using Fatal Plus (Vortech Pharmaceuticals, Dearborn, Mich., USA). A necropsy was completed after euthanasia to collect organs for histopathology.\nFlow cytometry was performed using a FACSCalibur flow cytometer (Becton Dickinson, Franklin Lakes, N.J., USA) with DXP 8 Color 488/637/407 upgrade (Cytek Development, Freemont, Calif., USA). The data was acquired using Cytek FlowJo CE version 7.5.110.7. Prior to analysis on the flow cytometry machine, whole rat blood was spun at 500×g for 5 min. The plasma platelet layer was removed and then diluted 1:10 with PBS. Approximately 20,000 events selected for platelet size were run on the […]. Data was analyzed using FlowJo V10.4.2 (FlowJo LLC, Ashland, Oreg., USA).\nThe unstained native rat platelets are to the left of the vertical line, and the stained transfused platelets are to the right. […] This difference is not noticeable at two minutes.\nTotal platelet counts for rats transfused with unstained platelets treated with PIC1 or saline control (as shown in FIG. 12B) were evaluated in order to evaluate if similar trends could be determined for unstained platelets. Platelet counts were measured for each blood sample by Antech Diagnostics (Chesapeake, Va.). Decreases in platelet counts were calculated for each time point compared with the maximal platelet count immediately after transfusion at 30 seconds."}, "[2]": {"conditions": "water, without PEGylation or DMSO", "experimental": "Sarcosine variants and PEG were dissolved in water and the pH was adjusted with NaOH. PA was dissolved in DMSO and then brought up to the final concentration with water resulting in 30% DMSO and pH adjusted. Antibody sensitized sheep erythrocytes (EA), purified C1q and factor B-depleted human sera were purchased from Complement Technology (Tyler, Tex.). Purified myeloperoxidase was purchased from Lee BioSolutions (Maryland Heights, Mo.) and tetramethylbenzidine (TMB) and PicoGreen were purchased from Thermo Fisher (Waltham Mass.).\n(PA), peptide derivatives were synthesized with sarcosine residues substituted at all 15 positions. Also included is a peptide in which the vicinal cysteines at positions 9 and 10 (C9,C10) were replaced with a single sarcosine residue."}},
  "data": [
    {"substance": "H2N-IALILEPICCQERAA-dPEG24 (H-IALILEPICCQERAA-dPEG24; cysteine pairing not given here) [PA-dPEG24]", "values": [
      {"measurement": "inhibition of C5a generation, in words", "setting": "C5a generation; 1.5 mM, P=0.028", "result": "Significant inhibition of C5a generation"},
      {"measurement": "decrease of C5a generation", "setting": "C5a generation; 3.0 mM, P=0.006", "result": 44, "unit": "%"},
      {"measurement": "C5a generation, dose response", "setting": "C5a generation; sensitizing antibody and NHS, increasing concentrations, FIG. 6B", "result": "dose-dependently inhibited C5a generation"},
      {"measurement": "increase in transfused platelets compared with control", "setting": "[1]; 160 mg/kg infused 30 seconds before transfusion, 0.5 minutes after transfusion, P=0.05, FIG. 12A", "result": 2, "unit": "fold"},
      {"measurement": "stained transfused platelets, representative flow cytometry", "setting": "[1]; 160 mg/kg, 0.5 minutes after transfusion, vs vehicle, FIG. 11", "result": "increased numbers of stained transfused platelets"},
      {"measurement": "amount of transfused platelets compared with control", "setting": "[1]; 160 mg/kg, later time points than 0.5 minutes", "result": "no significant difference in the amount of transfused platelets"},
      {"measurement": "decrease in total platelet count relative to 30 seconds after transfusion", "setting": "[1]; unstained platelets, two minutes (P=0.04) and 20 minutes (P=0.03), FIG. 12B", "result": "Statistically significant greater decreases in the platelet count were found for saline-treated versus PA-dPEG24-treated animals"},
      {"measurement": "H2O Soluble", "setting": "[2]", "result": "No"}
    ]}
  ]
}
